test system: not listed separately; assay: logP by HPLC on reversed-phase columns (C 18), EEC Directive 79/831 Annex V.A8; format: physicochemical; details: [a] LC-MS, acidic range, pH 2.7, 0.1% aqueous formic acid/acetonitrile
Protocol: Calibration is carried out using unbranched alkan-2-ones (having from 3 to 16 carbon atoms) with known log P values (the log P values are determined by the retention times using linear interpolation between two successive alkanones).

SMILES | logP(HCOOH)
Cc1cc(F)c(NC(=S)NCC(F)(F)F)cc1[S+]([O-])CC(F)(F)F (stereo not drawn) | 2.34
O=C(Nc1cc(SCC(F)(F)F)c(Br)cc1Cl)C(F)(F)F [III-9, N-{4-Bromo-2-chloro-5-[(2,2,2-trifluoroethyl)sulfanyl]phenyl}-2,2,2-trifluoroacetamide] | 3.46

same assay, conditions: [b] LC-MS, neutral range, pH 7.8, 0.001 molar aqueous ammonium bicarbonate/acetonitrile

SMILES | logP(neutral)
Cc1cc(F)c(NC(=S)NCC(F)(F)F)cc1[S+]([O-])CC(F)(F)F (stereo not drawn) | 2.30

same assay, conditions: pH 2.7, logP(HCOOH)

SMILES | chromatographic logP
Cc1cc(C)c(SCC(F)(F)F)cc1N=C1NCCO1 [2,4-Dimethyl-N-[1,3-oxazolidin-2-ylidene]-5-[(2,2,2-trifluoroethyl)sulfanyl]aniline] | 1.36

same assay, conditions: reversed-phase C18 HPLC column, pH 2.7, [a] LC-MS, acidic range, pH 2.7, 0.1% aqueous formic acid/acetonitrile; read-out: logP(HCOOH)

chromatographic logP | SMILES
0.8 | Cc1cc(F)c(N=C2NCCS2)cc1[S+]([O-])CC(F)(F)F (stereo not drawn) [2-Fluoro-4-methyl-N-[1,3-thiazolidin-2-ylidene]-5-[(2,2,2-trifluoroethyl)sulfinyl]aniline]
1.83 | Cc1cc(F)c(/N=C2\CCCN2c2ccccc2)cc1SCC(F)(F)F [2-Fluoro-4-methyl-N-[(2E)-1-phenylpyrrolidin-2-ylidene]-5-[(2,2,2-trifluoroethyl)sulfanyl]aniline]
2.01 | Nc1cccc(SCC(F)(F)F)c1 [3-[(2,2,2-Trifluoroethyl)sulfanyl]aniline]
3.16 | Cc1cc(F)c(SCC(F)(F)F)cc1NC(=O)C(F)(F)F [III-4, 2,2,2-Trifluoro-N-{4-fluoro-2-methyl-5-[(2,2,2-trifluoroethyl)sulfanyl]phenyl}acetamide]
3.78 | O=C(Nc1cc(SCC(F)(F)F)c(Br)cc1Cl)C(F)(F)F [III-5, N-{4-Bromo-2-chloro-5-[(2,2,2-trifluoroethyl)sulfanyl]phenyl}-2,2,2-trifluoroacetamide]
3.81 | O=C(Nc1cc(SCC(F)(F)F)c(Br)cc1Br)C(F)(F)F [III-6, N-{2,4-Dibromo-5-[(2,2,2-trifluoroethyl)sulfanyl]phenyl}-2,2,2-trifluoroacetamide]
3.33 | O=C(Nc1cc(SCC(F)(F)F)c(F)cc1Cl)C(F)(F)F [III-7, N-{2-Chloro-4-fluoro-5-[(2,2,2-trifluoroethyl)sulfanyl]phenyl}-2,2,2-trifluoroacetamide]
4 | Cc1cc(F)c(SSc2cc(NC(=O)C(F)(F)F)c(C)cc2F)cc1NC(=O)C(F)(F)F [IV-2, N,N′-[Disulfanediylbis(4-fluoro-6-methylbenzene-3,1-diyl)]bis(2,2,2-trifluoroacetamide)]

same assay, conditions: reversed-phase C18 HPLC column, pH 7.8, [b] LC-MS, neutral range, pH 7.8, 0.001 molar aqueous ammonium bicarbonate/acetonitrile; read-out: logP(neutral)

chromatographic logP | SMILES
4.92 | Cc1cc(F)c(/N=C2\CCCN2c2ccccc2)cc1SCC(F)(F)F [2-Fluoro-4-methyl-N-[(2E)-1-phenylpyrrolidin-2-ylidene]-5-[(2,2,2-trifluoroethyl)sulfanyl]aniline]
3.1 | Cc1cc(F)c(SCC(F)(F)F)cc1NC(=O)C(F)(F)F [III-4, 2,2,2-Trifluoro-N-{4-fluoro-2-methyl-5-[(2,2,2-trifluoroethyl)sulfanyl]phenyl}acetamide]
3.11 | O=C(Nc1cc(SCC(F)(F)F)c(F)cc1Cl)C(F)(F)F [III-7, N-{2-Chloro-4-fluoro-5-[(2,2,2-trifluoroethyl)sulfanyl]phenyl}-2,2,2-trifluoroacetamide]
3.11 | O=C(Nc1cc(SCC(F)(F)F)c(Br)cc1Cl)C(F)(F)F [III-9, N-{4-Bromo-2-chloro-5-[(2,2,2-trifluoroethyl)sulfanyl]phenyl}-2,2,2-trifluoroacetamide]
3.92 | Cc1cc(F)c(SSc2cc(NC(=O)C(F)(F)F)c(C)cc2F)cc1NC(=O)C(F)(F)F [IV-2, N,N′-[Disulfanediylbis(4-fluoro-6-methylbenzene-3,1-diyl)]bis(2,2,2-trifluoroacetamide)]

test system: greenhouse red spider mite (Tetranychus urticae); assay: Tetranychus urticae spray test, OP-resistant (TETRUR), bean leaf disks; format: in vivo; details: Tetranychus urticae, foliar, 144 h, application rate 500 g/ha, after 6 days; read-out: efficacy (spider mites killed)
Protocol: After 6 days, the effect in % is determined.

SMILES | pest or weed control at 500 g/ha
CN/C(=N\c1cc([S+]([O-])CC(F)(F)F)c(Cl)cc1C)c1cccnc1 (stereo not drawn) [Ib-103] | 90%
CN/C(=N\c1cc([S+]([O-])CC(F)(F)F)c(C)cc1F)c1cnc(Cl)c(Cl)c1 (stereo not drawn) [Ib-104] | 90%
CN/C(=N\c1cc([S+]([O-])CC(F)(F)F)c(Cl)cc1Cl)c1ccccn1 (stereo not drawn) [Ib-109] | 100%
Cc1cc(C)c([S+]([O-])CC(F)(F)F)cc1/N=C1\CCCN1C(C)C(F)(F)F (stereo not drawn) [Ib-112] | 100%
CN/C(=N/c1cc([S+]([O-])CC(F)(F)F)c(C)cc1F)c1cccc(C(F)(F)F)c1 (stereo not drawn) [Ib-113] | 100%
Cc1cc(F)c(/N=C(\c2cccc(C(F)(F)F)c2)N(C)C)cc1[S+]([O-])CC(F)(F)F (stereo not drawn) [Ib-114] | 100%
Cc1cc(F)c(/N=C2\SCC(=O)N2CC(F)F)cc1[S+]([O-])CC(F)(F)F (stereo not drawn) [Ib-116] | 90%
O=C1CS/C(=N\c2cc([S+]([O-])CC(F)(F)F)ccc2F)N1CC(F)(F)F (stereo not drawn) [Ib-117] | 100%
Cc1cc(F)c(/N=C(/N)c2ccc(Cl)cc2)cc1[S+]([O-])CC(F)(F)F (stereo not drawn) [Ib-118] | 100%
CN(C)/C(=N\c1cc([S+]([O-])CC(F)(F)F)c(Cl)cc1Cl)c1ccc(Cl)nc1 (stereo not drawn) [Ib-119] | 100%
O=C1CS/C(=N\c2cc([S+]([O-])CC(F)(F)F)c(Cl)cc2F)N1CC(F)(F)F (stereo not drawn) [Ib-120] | 100%
O=C1CS/C(=N\c2cc([S+]([O-])CC(F)(F)F)ccc2Cl)N1CC(F)(F)F (stereo not drawn) [Ib-121] | 100%
O=C1CS/C(=N\c2cc([S+]([O-])CC(F)(F)F)c(Cl)cc2Cl)N1C1CC1 (stereo not drawn) [Ib-122] | 90%
Cc1cc(F)c(/N=C(\c2ccc(C(F)(F)F)cc2)N(C)C)cc1[S+]([O-])CC(F)(F)F (stereo not drawn) [Ib-124] | 90%
CN/C(=N/c1ccc(C)c([S+]([O-])CC(F)(F)F)c1)C(F)(F)F (stereo not drawn) [Ib-125] | 100%
Cc1cc(C)c([S+]([O-])CC(F)(F)F)cc1/N=C(/c1ccccc1)N(C)C (stereo not drawn) [Ib-126] | 100%
CN(C)/C(=N\c1cc([S+]([O-])CC(F)(F)F)c(Cl)cc1Cl)c1ccccc1 (stereo not drawn) [Ib-127] | 100%
Cc1cc(F)c(/N=C/N(C)C)cc1[S+]([O-])CC(F)(F)F (stereo not drawn) [Ib-128] | 90%
[O-][S+](CC(F)(F)F)c1cc(/N=C(\NCC(F)F)C2CC2)c(Cl)cc1Cl (stereo not drawn) [Ib-129] | 100%
[O-][S+](CC(F)(F)F)c1cc(/N=C(\NCCc2ncc(C(F)(F)F)cc2Cl)C2CC2)c(Cl)cc1Cl (stereo not drawn) [Ib-130] | 100%
Cc1cc(F)c(/N=C(\N)C2CCCCC2)cc1[S+]([O-])CC(F)(F)F (stereo not drawn) [Ib-131] | 100%
Cc1cc(F)c(/N=C(\NCC(F)F)C2CC2)cc1[S+]([O-])CC(F)(F)F (stereo not drawn) [Ib-132] | 100%
Cc1cc(C)c([S+]([O-])CC(F)(F)F)cc1/N=C(/c1ccc(Cl)nc1)N(C)C (stereo not drawn) [Ib-133] | 90%
Cc1cc(F)c(/N=C2\SCC(=O)N2C)cc1[S+]([O-])CC(F)(F)F (stereo not drawn) [Ib-134] | 90%
Cc1cc(F)c(/N=C2\SCC(=O)N2C2CC2)cc1[S+]([O-])CC(F)(F)F (stereo not drawn) [Ib-135] | 100%
Cc1cc(C)c([S+]([O-])CC(F)(F)F)cc1/N=C(\NC1CC1)c1ccc(Cl)nc1 (stereo not drawn) [Ib-136] | 90%

SMILES | pest or weed control at 500 g/ha
Cc1cc(Cl)c([S+]([O-])CC(F)(F)F)cc1/N=C(\N)C1(Cl)CC1 (stereo not drawn) [Ib-138] | 100%
Cc1ccc(/N=C2\SCC(=O)N2CC(F)(F)F)cc1[S+]([O-])CC(F)(F)F (stereo not drawn) [Ib-139] | 100%
CN/C(=N\c1cc([S+]([O-])CC(F)(F)F)c(Cl)cc1Cl)c1cccc(Cl)c1 (stereo not drawn) [Ib-140] | 100%
Cc1cc(C)c([S+]([O-])CC(F)(F)F)cc1/N=C1\SCC(=O)N1CC(F)(F)F (stereo not drawn) [Ib-141] | 100%
Cc1cc(C)c([S+]([O-])CC(F)(F)F)cc1/N=C(\NCC(F)(F)F)C1CCC1 (stereo not drawn) [Ib-142] | 90%
CN/C(=N\c1cc([S+]([O-])CC(F)(F)F)c(Cl)cc1Cl)c1ccc(C(F)(F)F)nc1 (stereo not drawn) [Ib-144] | 90%
CN/C(=N/c1cc([S+]([O-])CC(F)(F)F)c(C)cc1F)c1ccc(C(F)(F)F)cc1 (stereo not drawn) [Ib-145] | 90%
O=C1CS/C(=N\c2ccc(Cl)c([S+]([O-])CC(F)(F)F)c2)N1CC(F)(F)F (stereo not drawn) [Ib-146] | 90%
Cc1cc(C)c([S+]([O-])CC(F)(F)F)cc1/N=C(/c1ccccc1Cl)N(C)C (stereo not drawn) [Ib-147] | 90%
CN/C(=N/c1cc([S+]([O-])CC(F)(F)F)c(C)cc1F)c1ccccc1C(F)(F)F (stereo not drawn) [Ib-148] | 100%
CN/C(=N\c1cc([S+]([O-])CC(F)(F)F)c(Cl)cc1Cl)c1ccc(Cl)cc1 (stereo not drawn) [Ib-149] | 90%
CCN/C(=N\c1cc([S+]([O-])CC(F)(F)F)c(Cl)cc1Cl)c1cccnc1 (stereo not drawn) [Ib-150] | 90%
[O-][S+](CC(F)(F)F)c1cc(/N=C(\NC2CC2)c2ccc(Cl)nc2)c(Cl)cc1Cl (stereo not drawn) [Ib-151] | 100%
CN/C(=N\c1cc([S+]([O-])CC(F)(F)F)c(Cl)cc1Cl)c1ccncc1 (stereo not drawn) [Ib-152] | 90%
Cc1cc(Cl)c([S+]([O-])CC(F)(F)F)cc1/N=C(\N)c1cnccn1 (stereo not drawn) [Ib-153] | 90%
Cc1cc(C)c([S+]([O-])CC(F)(F)F)cc1/N=C(/c1ccc(Cl)cc1)N(C)C (stereo not drawn) [Ib-154] | 90%
Cc1cc(C)c([S+]([O-])CC(F)(F)F)cc1/N=C(\NCC(F)(F)F)C1CCCC1 (stereo not drawn) [Ib-155] | 90%
Cc1cc(C)c([S+]([O-])CC(F)(F)F)cc1/N=C1\SCC(=O)N1C1CC1 (stereo not drawn) [Ib-156] | 90%
Cc1cc(C)c([S+]([O-])CC(F)(F)F)cc1/N=C(/c1ccccc1Cl)N1CCOCC1 (stereo not drawn) [Ib-157] | 90%
Cc1cc(F)c(/N=c2\sc(C)c(C)n2CC(F)(F)F)cc1[S+]([O-])CC(F)(F)F (stereo not drawn) [Ib-158] | 90%
Cc1cc(C)c([S+]([O-])CC(F)(F)F)cc1/N=C(\NC(C)C(F)(F)F)C1CC1 (stereo not drawn) [Ib-160] | 100%
Cc1cc(F)c(/N=C(\NCC(F)(F)F)C2CCC2)cc1[S+]([O-])CC(F)(F)F (stereo not drawn) [Ib-166] | 90%
[O-][S+](CC(F)(F)F)c1cc(/N=C(\NCC(F)(F)F)C2CCC2)c(Cl)cc1Cl (stereo not drawn) [Ib-167] | 90%
Cc1cc(F)c(/N=C2\CCCN2C(C)C(F)(F)F)cc1[S+]([O-])CC(F)(F)F (stereo not drawn) [Ib-169] | 100%
Cc1cc(F)c(/N=c2\scc(C3(Cl)CC3)n2CC(F)(F)F)cc1[S+]([O-])CC(F)(F)F (stereo not drawn) [Ib-172] | 90%
Cc1cc(F)c(/N=c2\snc(C)n2C)cc1[S+]([O-])CC(F)(F)F (stereo not drawn) [Ib-174] | 100%
